Patent US12180187B2, “1-phenyl-5-azinylpyrazolyl-3-oxyalkyl acids and their use for controlling unwanted plant growth” (BAYER AKTIENGESELLSCHAFT, priority 2019, dated 2024)

How the values were obtained:
PHBPU = test: Pre-emergence action at 320 g/ha against PHBPU; format: in vivo; details: visual scoring after about 3 weeks vs untreated controls
Text: b) Seeds of monocotyledonous and dicotyledonous weed plants and crop plants are placed in plastic or organic planting pots and covered with soil. The compounds of the invention, formulated in the form of wettable powders (WP) or as emulsion concentrates (EC), are then applied onto the surface of the covering soil as aqueous suspension or emulsion with addition of 0.5% additive at a water application rate of 600 l/ha (converted). After the treatment, the pots are placed in a greenhouse and kept under good growth conditions for the trial plants. After about 3 weeks, the effect of the preparations is scored visually in comparison with untreated controls as percentages. For example, 100% activity=the plants have died, 0% activity=like control plants. Tables 13 to 26 below show the effects of selected compounds of the general formula (I) on various harmful plants and at an application rate corresponding to 320 g/ha, which were obtained by the experimental procedure mentioned above.

LOLRI [1] = test: Pre-emergence action at 320 g/ha against LOLRI; format: in vivo, Lolium rigidum; details: visual scoring after about 3 weeks vs untreated controls
Procedure, shortened: (§1)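 Weed seeds sown in pots and covered with soil; compounds formulated as WP or EC were sprayed onto the soil surface as aqueous suspension or emulsion with 0.5% additive at 600 l/ha water. Pots kept in greenhouse; activity scored visually after about 3 weeks versus untreated controls (100% = plants dead, 0% = like control).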

VIOTR [2] = test: Pre-emergence action at 320 g/ha against VIOTR; format: in vivo, Viola tricolor; details: dosage 320 g/ha
Procedure, shortened: as §1

AVEFA [3] = test: Pre-emergence action at 320 g/ha against AVEFA; format: in vivo; details: visual scoring after about 3 weeks vs untreated controls
Procedure, shortened: as §1

POLCO [4] = test: Pre-emergence action at 320 g/ha against POLCO; format: in vivo, Fallopia convolvulus (Polygonum convolvulus); details: visual scoring after about 3 weeks vs untreated controls
Procedure, shortened: as §1

ALOMY [5] = test: Pre-emergence action at 320 g/ha against ALOMY; format: in vivo, Alopecurus myosuroides; details: scored visually after about 3 weeks vs untreated controls (100% = plants have died)
Procedure, shortened: as §1

VERPE [6] = test: Pre-emergence action at 320 g/ha against VERPE; format: in vivo, Veronica persica; details: visual scoring after about 3 weeks vs untreated controls
Procedure, shortened: as §1

SETVI [7] = test: Pre-emergence action at 320 g/ha against SETVI; format: in vivo, Setaria viridis; details: visual scoring after about 3 weeks vs untreated controls
Procedure, shortened: as §1

DIGSA = test: Pre-emergence action at 320 g/ha against DIGSA; format: in vivo, Digitaria sanguinalis; details: visual scoring after about 3 weeks vs untreated controls
Procedure, shortened: as §1

AMARE [8] = test: Pre-emergence action at 320 g/ha against AMARE; format: in vivo, Amaranthus retroflexus; details: visual scoring after about 3 weeks vs untreated controls
Procedure, shortened: as §1

ECHGC = test: Pre-emergence action at 320 g/ha against ECHGC; format: in vivo, Echinochloa crus-galli; details: visual scoring after about 3 weeks vs untreated controls
Procedure, shortened: as §1

MATIN [9] = test: Pre-emergence action at 320 g/ha against MATIN; format: in vivo, Tripleurospermum inodorum (Matricaria inodora); details: visual scoring after about 3 weeks vs untreated controls
Procedure, shortened: as §1

ALOMY [10] = test: Post-emergence action against ALOMY, 320 g/ha; format: in vivo, Alopecurus myosuroides; details: dosage 320 g/ha, visual rating about 3 weeks after treatment vs untreated controls (100% = plants died)
Text: (§2) Accordingly, the compounds of the invention have good herbicidal action against a broad spectrum of weed grasses and broad-leaved weeds and are therefore suitable for controlling unwanted vegetation by the post-emergence method. • b) Seeds of monocotyledonous and dicotyledonous weeds and crop plants are placed in sandy loam in plastic or organic planting pots, covered with soil and cultivated in a greenhouse under controlled growth conditions. 2 to 3 weeks after sowing, the test plants are treated at the one-leaf stage. The compounds of the invention, formulated in the form of wettable powders (WP) or as emulsion concentrates (EC), are then sprayed onto the green parts of the plants as aqueous suspension or emulsion with addition of 0.5% additive at a water application rate of 600 l/ha (converted). After the test plants have been kept in the greenhouse under optimum growth conditions for about 3 weeks, the activity of the preparations is rated visually in comparison to untreated controls. For example, 100% activity=the plants have died, 0% activity=like control plants. Tables 39 to 49 below show the effects of selected compounds of the general formula (I) according to Tables 1 and 2 on various harmful plants and at an application rate corresponding to 320 g/ha, which were obtained by the experimental procedure mentioned above.

STEME [11] = test: Pre-emergence action against STEME, 1280 g/ha; format: in vivo, Stellaria media; details: scored visually after about 3 weeks vs untreated controls (100% = plants have died)
Procedure, shortened: (§3)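 Sandy loam pots, seeds covered with soil; aqueous WP/EC spray on covering soil, 0.5% additive, 600 L/ha. Greenhouse growth, good conditions. Readout: visual % activity at ~3 weeks (0% = like control, 100% = dead).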

STEME [12] = test: Post-emergence action against STEME, 1.28 kg/ha; format: in vivo, Stellaria media; details: dosage 1280 g/ha, visual rating about 3 weeks after treatment vs untreated controls (100% = plants died)
Procedure, shortened: (§4)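 Greenhouse-grown weeds (sandy loam, twin-sown pots) were treated 2–3 weeks post-sowing at one leaf. The spray was an aqueous WP/EC preparation plus 0.5% additive, applied at 600 L/ha. Scoring was visual at ~3 weeks, 0–100% versus untreated controls.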

VIOTR [13] = test: Post-emergence action at 320 g/ha against VIOTR; format: in vivo, Viola tricolor; details: visual rating about 3 weeks after treatment vs untreated controls
Text: as §2

POAAN [14] = test: Post-emergence action against POAAN, 1.28 kg/ha; format: in vivo, Poa annua; details: dosage 1280 g/ha, visual rating about 3 weeks after treatment vs untreated controls
Procedure, shortened: as §4

POAAN [15] = test: Pre-emergence action against POAAN, 1280 g/ha; format: in vivo, Poa annua; details: visual scoring after about 3 weeks vs untreated controls, 100% = plants have died, 0% = like control plants
Procedure, shortened: as §3

VERPE [16] = test: Pre-emergence action against VERPE, 1280 g/ha; format: in vivo, Veronica persica; details: scored visually after about 3 weeks vs untreated controls (100% = plants have died)
Procedure, shortened: as §3

ECHCG [17] = test: Post-emergence action against ECHCG, 1.28 kg/ha; format: in vivo, Echinochloa crus-galli; details: dosage 1280 g/ha, visual rating about 3 weeks after treatment vs untreated controls
Procedure, shortened: as §4

ECHCG [18] = test: Pre-emergence action against ECHCG, 1280 g/ha; format: in vivo, Echinochloa crus-galli; details: visual scoring after about 3 weeks vs untreated controls, 100% = plants have died, 0% = like control plants
Procedure, shortened: as §3

AMARE [19] = test: Pre-emergence action against AMARE, 1280 g/ha; format: in vivo, Amaranthus retroflexus; details: scored visually after about 3 weeks vs untreated controls (100% = plants have died)
Procedure, shortened: as §3

AMARE [20] = test: Post-emergence action at 320 g/ha against AMARE; format: in vivo, Amaranthus retroflexus; details: visual rating about 3 weeks after treatment vs untreated controls
Text: as §2

MATIN [21] = test: Pre-emergence action against MATIN, 1280 g/ha; format: in vivo, Tripleurospermum inodorum (Matricaria inodora); details: scored visually after about 3 weeks vs untreated controls (100% = plants have died)
Procedure, shortened: as §3

SETVI [22] = test: Pre-emergence action against SETVI, 1280 g/ha; format: in vivo, Setaria viridis; details: visual scoring after about 3 weeks vs untreated controls, 100% = plants have died, 0% = like control plants
Procedure, shortened: as §3

AMARE [23] = test: Post-emergence action against AMARE, 1.28 kg/ha; format: in vivo, Amaranthus retroflexus; details: dosage 1280 g/ha, visual rating about 3 weeks after treatment vs untreated controls (100% = plants died)
Procedure, shortened: as §4

POLCO [24] = test: Post-emergence action at 320 g/ha against POLCO; format: in vivo, Fallopia convolvulus (Polygonum convolvulus); details: visual rating about 3 weeks after treatment vs untreated controls
Text: as §2

SETVI [25] = test: Post-emergence action against SETVI, 1.28 kg/ha; format: in vivo, Setaria viridis; details: dosage 1280 g/ha, visual rating about 3 weeks after treatment vs untreated controls
Procedure, shortened: as §4

MATIN [26] = test: Post-emergence action against MATIN, 1.28 kg/ha; format: in vivo, Tripleurospermum inodorum (Matricaria inodora); details: dosage 1280 g/ha, visual rating about 3 weeks after treatment vs untreated controls (100% = plants died)
Procedure, shortened: as §4

LOLRI [27] = test: Post-emergence action against LOLRI, 1.28 kg/ha; format: in vivo, Lolium rigidum; details: dosage 1280 g/ha, visual rating about 3 weeks after treatment vs untreated controls
Procedure, shortened: as §4

AVEFA [28] = test: Post-emergence action at 320 g/ha against AVEFA; format: in vivo; details: visual rating about 3 weeks after treatment vs untreated controls
Text: as §2

VERPE [29] = test: Post-emergence action against VERPE, 1.28 kg/ha; format: in vivo, Veronica persica; details: dosage 1280 g/ha, visual rating about 3 weeks after treatment vs untreated controls (100% = plants died)
Procedure, shortened: as §4

LOLRI [30] = test: Pre-emergence action against LOLRI, 1280 g/ha; format: in vivo, Lolium rigidum; details: visual scoring after about 3 weeks vs untreated controls, 100% = plants have died, 0% = like control plants
Procedure, shortened: as §3

## O=C(O)COc1nn(-c2ccccc2F)c(-c2ccc(F)nc2)c1F [VII-115]
PHBPU
  Pre-emergence action against PHBPU in %: 90%
LOLRI [1]
  Pre-emergence action against LOLRI in %: 90%
VIOTR [2]
  Pre-emergence action against VIOTR in %: 100%
AVEFA [3]
  Pre-emergence action against AVEFA in %: 90%
POLCO [4]
  Pre-emergence action against POLCO in %: 80%
ALOMY [5]
  Pre-emergence action at 320 g/ha against ALOMY in %: 100%
VERPE [6]
  Pre-emergence action against VERPE in %: 90%
SETVI [7]
  Pre-emergence action against SETVI in %: 100%
DIGSA
  Pre-emergence action against DIGSA in %: 100%
AMARE [8]
  Pre-emergence action against AMARE in %: 100%

## C[C@@H](Oc1nn(-c2ccccc2F)c(-c2cncc(F)c2)c1Br)C(=O)O [VII-128]
PHBPU
  Pre-emergence action against PHBPU in %: 90%
LOLRI [1]
  Pre-emergence action against LOLRI in %: 100%
ECHGC
  Pre-emergence action against ECHGC in %: 90%
MATIN [9]
  Pre-emergence action against MATIN in %: 90%
VIOTR [2]
  Pre-emergence action against VIOTR in %: 100%
AVEFA [3]
  Pre-emergence action against AVEFA in %: 80%
POLCO [4]
  Pre-emergence action against POLCO in %: 90%
ALOMY [5]
  Pre-emergence action at 320 g/ha against ALOMY in %: 100%
VERPE [6]
  Pre-emergence action against VERPE in %: 100%
SETVI [7]
  Pre-emergence action against SETVI in %: 100%
DIGSA
  Pre-emergence action against DIGSA in %: 100%
AMARE [8]
  Pre-emergence action against AMARE in %: 100%

## CCOC(=O)COc1nn(-c2ccccc2F)c(-c2ccnc(F)c2)c1Br [VIII-002]
ALOMY [10]
  Post-emergence action against ALOMY: 90%
STEME [11]
  Pre-emergence action against STEME: 90%
STEME [12]
  Post-emergence action against STEME: 100%
VIOTR [13]
  Post-emergence action against VIOTR in %: 80%
POAAN [14]
  Post-emergence action against POAAN: 100%
POAAN [15]
  Pre-emergence action against POAAN: 100%
VERPE [16]
  Pre-emergence action against VERPE: 90%
ECHCG [17]
  Post-emergence action against ECHCG: 100%
ECHCG [18]
  Pre-emergence action against ECHCG: 100%
AMARE [19]
  Pre-emergence action against AMARE: 100%
AMARE [20]
  Post-emergence action against AMARE in %: 80%
VIOTR [2]
  Pre-emergence action against VIOTR in %: 100%
MATIN [21]
  Pre-emergence action against MATIN: 100%
SETVI [22]
  Pre-emergence action against SETVI: 100%
POLCO [4]
  Pre-emergence action against POLCO in %: 90%
AMARE [23]
  Post-emergence action against AMARE: 100%
POLCO [24]
  Post-emergence action against POLCO in %: 80%
ALOMY [5]
  Pre-emergence action at 320 g/ha against ALOMY in %: 90%
SETVI [25]
  Post-emergence action against SETVI: 90%
VERPE [6]
  Pre-emergence action against VERPE in %: 80%
MATIN [26]
  Post-emergence action against MATIN: 90%
SETVI [7]
  Pre-emergence action against SETVI in %: 100%
LOLRI [27]
  Post-emergence action against LOLRI: 100%
DIGSA
  Pre-emergence action against DIGSA in %: 100%
AVEFA [28]
  Post-emergence action against AVEFA in %: 90%
AMARE [8]
  Pre-emergence action against AMARE in %: 100%
VERPE [29]
  Post-emergence action against VERPE: 90%
LOLRI [30]
  Pre-emergence action against LOLRI: 100%
